Laboratory results as given in patent publication US12384771B2, “Pleuromutilin derivative containing thiazole-pyridine benzyl quaternary ammonium salt side chain and preparation method and use thereof” (SHAANXI UNIVERSITY OF SCIENCE AND TECHNOLOGY, priority 2022, dated 2025).
Values after ≈ are worked out from the molar mass of the structure shown. Structures can show the parent of a compound that is named as a salt. Where two headings read alike, the source gives them in different places.

How the values were obtained:
Assay in all cases: MIC, microbroth dilution, standard strains
Assay type in all cases: cell-based
[1] = test system: Staphylococcus aureus ATCC 25923
Protocol: (§1) The minimum inhibitory concentration (MIC) of the pleuromutilin derivative containing thiazole-pyridine benzyl quaternary ammonium salt side chain was tested with moxifloxacin as a positive control (purchased from Shanghai Macklin Biochemical Technology Co., Ltd.) using a microbroth dilution method.
(§2) Standard strains include gram-positive bacteria: Staphylococcus epidermidis ATCC 12228, Staphylococcus aureus ATCC 29213, ATCC 25923 and methicillin-resistant Staphylococcus aureus ATCC 33591; gram-negative bacteria: Salmonella ATCC 14028, Acinetobacter baumannii ATCC 19606, Escherichia coli ATCC 25922 and CMCC 44103, all the strains were purchased from the American Type Culture Collection.

[2] = test system: methicillin-resistant Staphylococcus aureus ATCC 33591
Protocol: as §1, §2

[3] = test system: Escherichia coli CMCC 44103
Protocol: as §1, §2

[4] = test system: Acinetobacter baumannii ATCC 19606
Protocol: as §1, §2

[5] = test system: Staphylococcus aureus ATCC 29213
Protocol: as §1, §2

[6] = test system: Staphylococcus epidermidis ATCC 12228
Protocol: as §1, §2

Salmonella ATCC 14028 = test system: Salmonella ATCC 14028
Protocol: as §1, §2

[7] = test system: Escherichia coli ATCC 25922
Protocol: as §1, §2

[8] = ATCC25923, read-out: Minimum inhibitory concentration
[9] = ATCC33591, read-out: Minimum inhibitory concentration
[10] = CMCC44103, read-out: Minimum inhibitory concentration
[11] = ATCC19606, read-out: Minimum inhibitory concentration
[12] = ATCC29213, read-out: Minimum inhibitory concentration
[13] = ATCC12228, read-out: Minimum inhibitory concentration
[14] = ATCC14028, ATCC 14028, read-out: Minimum inhibitory concentration
[15] = ATCC25923, ATCC 25923, read-out: Minimum inhibitory concentration
[16] = ATCC33591, ATCC 33591, read-out: Minimum inhibitory concentration
[17] = ATCC25922, ATCC 25922, read-out: Minimum inhibitory concentration
[18] = CMCC44103, CMCC 44103, read-out: Minimum inhibitory concentration
[19] = ATCC19606, ATCC 19606, read-out: Minimum inhibitory concentration
[20] = ATCC29213, ATCC 29213, read-out: Minimum inhibitory concentration
[21] = ATCC12228, ATCC 12228, read-out: Minimum inhibitory concentration
[22] = ATCC14028, read-out: Minimum inhibitory concentration
[23] = ATCC25922, read-out: Minimum inhibitory concentration

| SMILES | MIC (Salmonella ATCC 14028; [14]) [µg/mL] | MIC [1, 15] [µg/mL] | MIC [2, 16] [µg/mL] | MIC [7, 17] [µg/mL] | MIC [3, 18] [µg/mL] | MIC [4, 19] [µg/mL] | MIC [5, 20] [µg/mL] | MIC [6, 21] [µg/mL] | MIC [1, 8] [µg/mL] | MIC [2, 9] [µg/mL] | MIC [3, 10] [µg/mL] | MIC [4, 11] [µg/mL] | MIC [5, 12] [µg/mL] | MIC [6, 13] [µg/mL] | MIC (Salmonella ATCC 14028; [22]) [µg/mL] | MIC [7, 23] [µg/mL] |
| --- | --- | --- | --- | --- | --- | --- | --- | --- | --- | --- | --- | --- | --- | --- | --- | --- |
| C=C[C@]1(C)C[C@@H](OC(=O)CSc2nc(-c3cc[n+](Cc4ccccc4)cc3)cs2)[C@]2(C)[C@H](C)CC[C@]3(CCC(=O)[C@H]32)[C@@H](C)[C@@H]1O [Compound 1, 1-Benzyl-4-(2-(((8-hydroxy-4,7,9,12-tetramethyl-3-oxy-7-vinyldecahydro-4,9a-propanecyclopenta[8]cyclen-5-yl)oxy)-2-oxoethyl)thiothiazol-4-yl)pyridyl bromide salt] |  |  |  |  |  |  |  |  | 0.5 | 1 | 0.25 | 4 | 0.125 | 2 |  |  |
| C=C[C@]1(C)C[C@@H](OC(=O)CSc2nc(-c3cc[n+](Cc4ccc(C(F)(F)F)cc4)cc3)cs2)[C@]2(C)[C@H](C)CC[C@]3(CCC(=O)[C@H]32)[C@@H](C)[C@@H]1O [Compound 3, 1-(4-(trifluoromethyl)benzyl)-4-(2-(8-hydroxy-4,7,9,12-tetramethyl-3-oxo-7-vinyldecahydro-4,9a-propancyclopent[8]cyclen-5-yl)oxy)-2-oxoethyl)thiazol-4-yl)pyridyl bromide salt] | 2 | 1 | 2 | 1 | 2 | 2 | 0.25 | 1 |  |  |  |  |  |  |  |  |
| C=C[C@]1(C)C[C@@H](OC(=O)CSc2nc(-c3cc[n+](Cc4ccc(OC(F)(F)F)cc4)cc3)cs2)[C@]2(C)[C@H](C)CC[C@]3(CCC(=O)[C@H]32)[C@@H](C)[C@@H]1O [Compound 5, 1-(4-(trifluoromethoxy)benzyl)-4-(2-(8-hydroxy-4,7,9,12-tetramethyl-3-oxo-7-vinyldecahydro-4,9a-propancyclopent[8]cyclen-5-yl)oxy)-2-oxoethyl)thiazol-4-yl)pyridyl bromide salt] | 4 | 32 | 2 | 2 | 32 | 8 | 2 | 2 |  |  |  |  |  |  |  |  |
| C=C[C@]1(C)C[C@@H](OC(=O)CSc2nc(-c3cc[n+](Cc4ccc(C(C)(C)C)cc4)cc3)cs2)[C@]2(C)[C@H](C)CC[C@]3(CCC(=O)[C@H]32)[C@@H](C)[C@@H]1O [Compound 6, 1-(4-(tert-butyl)benzyl)-4-(2-(8-hydroxy-4,7,9,12-tetramethyl-3-oxo-7-vinyldecahydro-4,9a-propancyclopent[8]cyclen-5-yl)oxy)-2-oxoethyl)thiazol-4-yl)pyridyl bromide salt] | 2 | 0.5 | 1 | 2 | 2 | 2 | 0.25 | 2 |  |  |  |  |  |  |  |  |
| C=C[C@]1(C)C[C@@H](OC(=O)CSc2nc(-c3cc[n+](Cc4ccc(C#N)cc4)cc3)cs2)[C@]2(C)[C@H](C)CC[C@]3(CCC(=O)[C@H]32)[C@@H](C)[C@@H]1O [Compound 8, 1-(4-(cyano)benzyl)-4-(2-(8-hydroxy-4,7,9,12-tetramethyl-3-oxo-7-vinyldecahydro-4,9a-propancyclopent[8]cyclen-5-yl)oxy)-2-oxoethyl)thiazol-4-yl)pyridyl bromide salt] |  |  |  |  |  |  |  |  | 1 | 64 | 8 | 32 | 0.125 | 8 | 32 | 2 |
| C=C[C@]1(C)C[C@@H](OC(=O)CSc2nc(-c3cc[n+](Cc4ccc(F)cc4)cc3)cs2)[C@]2(C)[C@H](C)CC[C@]3(CCC(=O)[C@H]32)[C@@H](C)[C@@H]1O [Compound 9, 1-(4-fluorobenzyl)-4-(2-(8-hydroxy-4,7,9,12-tetramethyl-3-oxo-7-vinyldecahydro-4,9a-propancyclopent[8]cyclen-5-yl)oxy)-2-oxoethyl)thiazol-4-yl)pyridyl bromide salt] | 1 | 1 | 2 | 2 | 1 | 16 | 1 | 2 |  |  |  |  |  |  |  |  |
| C=C[C@]1(C)C[C@@H](OC(=O)CSc2nc(-c3cc[n+](Cc4ccc(Cl)cc4)cc3)cs2)[C@]2(C)[C@H](C)CC[C@]3(CCC(=O)[C@H]32)[C@@H](C)[C@@H]1O [Compound 10, 1-(4-chlorobenzyl)-4-(2-(8-hydroxy-4,7,9,12-tetramethyl-3-oxo-7-vinyldecahydro-4,9a-propancyclopent[8]cyclen-5-yl)oxy)-2-oxoethyl)thiazol-4-yl)pyridyl bromide salt] | 2 | 2 | 2 | 0.5 | 1 | 2 | 0.125 | 2 |  |  |  |  |  |  |  |  |
| C=C[C@]1(C)C[C@@H](OC(=O)CSC(C)(C)CNC(=O)[C@H](N)C(C)C)[C@]2(C)[C@H](C)CC[C@]3(CCC(=O)[C@H]32)[C@@H](C)[C@@H]1O [Valnemulin, valnemulin, reference compound] |  |  |  |  |  |  |  |  | 4 (≈ 7.08 µM) | > 128 | 64 (≈ 113 µM) | 2 (≈ 3.54 µM) | 2 (≈ 3.54 µM) | 64 (≈ 113 µM) | 64 (≈ 113 µM) | 16 (≈ 28.3 µM) |

Second part, led by results:

| MIC (Salmonella ATCC 14028; [14]) [µg/mL] | MIC [1, 15] [µg/mL] | MIC [2, 16] [µg/mL] | MIC [7, 17] [µg/mL] | MIC [3, 18] [µg/mL] | MIC [4, 19] [µg/mL] | MIC [5, 20] [µg/mL] | MIC [6, 21] [µg/mL] | SMILES | MIC [1, 8] [µg/mL] | MIC [2, 9] [µg/mL] | MIC [3, 10] [µg/mL] | MIC [4, 11] [µg/mL] | MIC [5, 12] [µg/mL] | MIC [6, 13] [µg/mL] | MIC (Salmonella ATCC 14028; [22]) [µg/mL] | MIC [7, 23] [µg/mL] |
| --- | --- | --- | --- | --- | --- | --- | --- | --- | --- | --- | --- | --- | --- | --- | --- | --- |
| 4 | 1 | 2 | 2 | 0.5 | 2 | 0.5 | 2 | C=C[C@]1(C)C[C@@H](OC(=O)CSc2nc(-c3cc[n+](Cc4ccc(Br)cc4)cc3)cs2)[C@]2(C)[C@H](C)CC[C@]3(CCC(=O)[C@H]32)[C@@H](C)[C@@H]1O [Compound 11, 1-(4-bromobenzyl)-4-(2-(8-hydroxy-4,7,9,12-tetramethyl-3-oxo-7-vinyldecahydro-4,9a-propancyclopent[8]cyclen-5-yl)oxy)-2-oxoethyl)thiazol-4-yl)pyridyl bromide salt] |  |  |  |  |  |  |  |  |
| 2 | 1 | 2 | 1 | 1 | 2 | 0.5 | 2 | C=C[C@]1(C)C[C@@H](OC(=O)CSc2nc(-c3cc[n+](Cc4ccc(-c5ccccc5)cc4)cc3)cs2)[C@]2(C)[C@H](C)CC[C@]3(CCC(=O)[C@H]32)[C@@H](C)[C@@H]1O [Compound 12, 1-([1,1′-biphenyl]-4-ylmethyl)-4-(2-(8-hydroxy-4,7,9,12-tetramethyl-3-oxo-7-vinyldecahydro-4,9a-propancyclopent[8]cyclen-5-yl)oxy)-2-oxoethyl)thiazol-4-yl)pyridyl bromide salt] |  |  |  |  |  |  |  |  |
| 16 | 64 | 64 | 32 | 32 | 8 | 128 | 128 | C=C[C@]1(C)C[C@@H](OC(=O)CSc2nc(-c3cc[n+](Cc4cc(C)cc(C)c4)cc3)cs2)[C@]2(C)[C@H](C)CC[C@]3(CCC(=O)[C@H]32)[C@@H](C)[C@@H]1O [Compound 13, 1-(3,5-dimethylbenzyl)-4-(2-(8-hydroxy-4,7,9,12-tetramethyl-3-oxo-7-vinyldecahydro-4,9a-propancyclopent[8]cyclen-5-yl)oxy)-2-oxoethyl)thiazol-4-yl)pyridyl bromide salt] |  |  |  |  |  |  |  |  |
| 16 | 64 | 64 | 32 | 8 | 8 | 128 | 64 | C=C[C@]1(C)C[C@@H](OC(=O)CSc2nc(-c3cc[n+](Cc4cc(OC)cc(OC)c4)cc3)cs2)[C@]2(C)[C@H](C)CC[C@]3(CCC(=O)[C@H]32)[C@@H](C)[C@@H]1O [Compound 14, 1-(3,5-dimethoxybenzyl)-4-(2-(8-hydroxy-4,7,9,12-tetramethyl-3-oxo-7-vinyldecahydro-4,9a-propancyclopent[8]cyclen-5-yl)oxy)-2-oxoethyl)thiazol-4-yl)pyridyl bromide salt] |  |  |  |  |  |  |  |  |
| 16 | 128 | 64 | 16 | 32 | 8 | 64 | 32 | C=C[C@]1(C)C[C@@H](OC(=O)CSc2nc(-c3cc[n+](Cc4cc(F)cc(F)c4)cc3)cs2)[C@]2(C)[C@H](C)CC[C@]3(CCC(=O)[C@H]32)[C@@H](C)[C@@H]1O [Compound 15, 1-(3,5-difluorobenzyl)-4-(2-(8-hydroxy-4,7,9,12-tetramethyl-3-oxo-7-vinyldecahydro-4,9a-propancyclopent[8]cyclen-5-yl)oxy)-2-oxoethyl)thiazol-4-yl)pyridyl bromide salt] |  |  |  |  |  |  |  |  |
